Reference: patent US9273057B2 (Bristol-Myers Squibb Company, priority 2012, dated 2016)

Target: CK2A1 (CK2α/β) (Homo sapiens, UniProt P68400)
Experiment: CK2 kinase assay, CK2A1 (CK2α/β)
Assay type: biochemical
Conditions: Table A; read-out: CK2A1 (CK2α/β) (IC50)

Sequence of CK2A1 (CK2α/β) (P68400 whole entry, species assumed): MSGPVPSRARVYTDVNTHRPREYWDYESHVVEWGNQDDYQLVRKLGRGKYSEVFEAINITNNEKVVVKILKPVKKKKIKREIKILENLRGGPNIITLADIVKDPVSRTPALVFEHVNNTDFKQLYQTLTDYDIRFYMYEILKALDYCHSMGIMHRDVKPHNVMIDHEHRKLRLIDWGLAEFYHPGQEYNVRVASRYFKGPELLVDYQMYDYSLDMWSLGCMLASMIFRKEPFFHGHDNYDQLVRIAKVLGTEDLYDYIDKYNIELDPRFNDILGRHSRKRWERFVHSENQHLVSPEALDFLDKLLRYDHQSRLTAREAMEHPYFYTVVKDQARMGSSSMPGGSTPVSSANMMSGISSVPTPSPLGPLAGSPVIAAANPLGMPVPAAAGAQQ
Sequence of CK2A1 (CK2α/β) (P67870 whole entry partner, species assumed): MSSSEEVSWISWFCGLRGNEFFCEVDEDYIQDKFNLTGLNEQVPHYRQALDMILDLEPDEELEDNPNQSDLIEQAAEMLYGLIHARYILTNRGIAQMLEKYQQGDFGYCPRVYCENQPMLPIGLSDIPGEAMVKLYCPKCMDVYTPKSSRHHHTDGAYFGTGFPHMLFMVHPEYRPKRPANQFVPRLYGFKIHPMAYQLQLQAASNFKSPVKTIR

Row | SMILES | IC50 [nM]
1 | CC1CN(C2CCN(c3cc(C#N)cc(Nc4nc(NC5CC5)c5ncc(C#N)n5n4)c3Cl)CC2)CC(C)O1 (racemic) [Example 109, (+/−) 2-((2-chloro-5-cyano-3-(4-(2,6-dimethyl-4-morpholinyl)-1-piperidinyl)phenyl)amino)-4-(cyclopropylamino)imidazo [2,1-f][1,2,4]triazine-7-carbonitrile] | 4.09
2 | N#Cc1cc(Nc2nc(NC3CC3)c3ncc(C#N)n3n2)c(Cl)c(N2CCC(NC3CCOC3)CC2)c1 (racemic) [Example 112, (+/−) 2-((2-chloro-5-cyano-3-(4-(tetrahydro-3-furanylamino)-1-piperidinyl)phenyl)amino)-4-(cyclopropylamino)imidazo [2,1-f][1,2,4]triazine-7-carbonitrile] | 2.56
3 | N#Cc1cc(Nc2nc(NC3CC3)c3ncc(C#N)n3n2)c(Cl)c(N2CCC(NC3(CS(=O)(=O)c4ccccc4)COC3)CC2)c1 (racemic) [Example 113, (+/−) 2-((2-chloro-5-cyano-3-(4-((3-((phenylsulfonyl)methyl)-3-oxetanyl)amino)-1-piperidinyl)phenyl)amino)-4-(cyclopropylamino)imidazo [2,1-f][1,2,4]triazine-7-carbonitrile] | 1.01
4 | N#CCC1(NC2CCN(c3cc(C#N)cc(Nc4nc(NC5CC5)c5ncc(C#N)n5n4)c3Cl)CC2)COC1 (racemic) [Example 114, (+/−) 2-((2-chloro-5-cyano-3-(4-((3-(cyanomethyl)-3-oxetanyl)amino)-1-piperidinyl)phenyl)amino)-4-(cyclopropylamino)imidazo [2,1-f][1,2,4]triazine-7-carbonitrile] | 1.57
5 | CN1CC(NC2CCN(c3cc(C#N)cc(Nc4nc(NC5CC5)c5ncc(C#N)n5n4)c3Cl)CC2)CC1=O (racemic) [Example 116, (+/−) 2-((2-chloro-5-cyano-3-(4-((1-methyl-5-oxo-3-pyrrolidinyl)amino)-1-piperidinyl)phenyl)amino)-4-(cyclopropylamino)imidazo [2,1-f][1,2,4]triazine-7-carbonitrile] | 0.68
6 | N#Cc1cc(Nc2nc(NC3CC3)c3ncc(C#N)n3n2)c(Cl)c(N2CCC(N[C@H]3CC[C@H](O)C3)CC2)c1 (racemic) [Example 120, (+/−) 2-((2-chloro-5-cyano-3-(4-(((1S,3S)-3-hydroxycyclopentyl)amino)-1-piperidinyl)phenyl)amino)-4-(cyclopropylamino)imidazo [2,1-f][1,2,4]triazine-7-carbonitrile] | 0.69
7 | N#Cc1cc(Nc2nc(NC3CC3)c3ncc(C#N)n3n2)c(Cl)c(N2CCC(N[C@@H]3CC[C@H](O)C3)CC2)c1 (racemic) [Example 121, (+/−) 2-((2-chloro-5-cyano-3-(4-(((1R,3S)-3-hydroxycyclopentyl)amino)-1-piperidinyl)phenyl)amino)-4-(cyclopropylamino)imidazo [2,1-f][1,2,4]triazine-7-carbonitrile] | 1.05
8 | C[C@H]1OCC[C@@H]1NC1CCN(c2cc(C#N)cc(Nc3nc(NC4CC4)c4ncc(C#N)n4n3)c2Cl)CC1 (racemic) [Example 122, (+/−) 2-((2-chloro-5-cyano-3-(4-(((2R,3S)-2-methyltetrahydro-3-furanyl)amino)-1-piperidinyl)phenyl)amino)-4-(cyclopropylamino)imidazo [2,1-f][1,2,4]triazine-7-carbonitrile] | 0.8
9 | C[C@@H]1OCC[C@@H]1NC1CCN(c2cc(C#N)cc(Nc3nc(NC4CC4)c4ncc(C#N)n4n3)c2Cl)CC1 (racemic) [Example 123, (+/−) 2-((2-chloro-5-cyano-3-(4-(((2S,3S)-2-methyltetrahydro-3-furanyl)amino)-1-piperidinyl)phenyl)amino)-4-(cyclopropylamino)imidazo [2,1-f][1,2,4]triazine-7-carbonitrile] | 0.55
10 | N#Cc1cc(Nc2nc(NC3CC3)c3ncc(C#N)n3n2)c(Cl)c(N2CCC(N[C@@H]3CCCC[C@@H]3F)CC2)c1 (racemic) [Example 127, (+/−) 2-(2-chloro-5-cyano-3-(4-((1R,2R)-2-fluorocyclohexylamino)piperidin-1-yl)phenylamino)-4-(cyclopropylamino)imidazo [1,2-f][1,2,4]triazine-7-carbonitrile] | 0.62
11 | N#Cc1cc(Nc2nc(NC3CC3)c3ncc(C#N)n3n2)c(Cl)c(N2CCC(N[C@@H]3CCCC[C@H]3F)CC2)c1 (racemic) [Example 128, (+/−)2-(2-chloro-5-cyano-3-(4-((1R,2S)-2-fluorocyclohexylamino)piperidin-1-yl)phenylamino)-4-(cyclopropylamino)imidazo [1,2-f][1,2,4]triazine-7-carbonitrile] | 4.77
12 | N#Cc1cc(Nc2nc(NC3CC3)c3ncc(C#N)n3n2)c(Cl)c(N2CCC(N[C@H]3COC[C@@H]3O)CC2)c1 (racemic) [Example 135, (+/−) 2-((2-chloro-5-cyano-3-(4-(((3S,4R)-4-hydroxytetrahydro-3-furanyl)amino)-1-piperidinyl)phenyl)amino)-4-(cyclopropylamino)imidazo [2,1-f][1,2,4]triazine-7-carbonitrile] | 0.68
13 | CC(O)CNC1CCN(c2cc(C#N)cc(Nc3nc(NC4CC4)c4ncc(C#N)n4n3)c2Cl)CC1 (racemic) [Example 138, (+/−).2-(2-chloro-5-cyano-3-(4-(2-hydroxypropylamino)piperidin-1-yl)phenylamino)-4-(cyclopropylamino)imidazo [1,2-f][1,2,4]triazine-7-carbonitrile] | 0.64
14 | N#Cc1cc(Nc2nc(NC3CC3)c3ncc(C#N)n3n2)c(Cl)c(N2CCC(NCC(O)C(F)(F)F)CC2)c1 (racemic) [Example 139, (+/−) 2-((2-chloro-5-cyano-3-(4-((3,3,3-trifluoro-2-hydroxypropyl)amino)-1-piperidinyl)phenyl)amino)-4-(cyclopropylamino)imidazo [2,1-f][1,2,4]triazine-7-carbonitrile] | 0.45
15 | COCC(NC1CCN(c2cc(C#N)cc(Nc3nc(NC4CC4)c4ncc(C#N)n4n3)c2Cl)CC1)C1CC1 (racemic) [Example 142, (+/−) 2-((2-chloro-5-cyano-3-(4-((1-cyclopropyl-2-methoxyethyl)amino)-1-piperidinyl)phenyl)amino)-4-(cyclopropylamino)imidazo [2,1-f][1,2,4]triazine-7-carbonitrile] | 0.67
16 | N#Cc1cc(Nc2nc(NC3CC3)c3ncc(C#N)n3n2)c(Cl)c(N2CCC(NCC(O)CF)CC2)c1 (racemic) [Example 144, (+/−) 2-((2-chloro-5-cyano-3-(4-((3-fluoro-2-hydroxypropyl)amino)-1-piperidinyl)phenyl)amino)-4-(cyclopropylamino)imidazo [2,1-f][1,2,4]triazine-7-carbonitrile] | 1.11
17 | CC(C)(O)C1CN(C2CCN(c3cc(C#N)cc(Nc4nc(NC5CC5)c5ncc(C#N)n5n4)c3Cl)CC2)CCO1 (racemic) [Example 148, (+/−) 2-((2-chloro-5-cyano-3-(4-(2-(1-hydroxy-1-mcthylethyl)-4-morpholinyl)-1-piperidinyl)phenyl)amino)-4-(cyclopropylamino)imidazo [2,1-f][1,2,4]triazine-7-carbonitrile] | 1.03
18 | COC(=O)N[C@H]1CCN(C2CN(c3cc(C#N)cc(Nc4nc(NC5CC5)c5ncc(C#N)n5n4)c3Cl)C2)C[C@@H]1O (racemic) [Example 154, (+/−) methyl ((3S,4S)-1-(1-(2-chloro-5-cyano-3-((7-cyano-4-(cyclopropylamino)imidazo [2,1-f][1,2,4]triazin-2-yl)amino)phenyl)-3-azetidinyl)-3-hydroxy-4-piperidinyl)carbamate] | 0.4
19 | N#Cc1cc(Nc2nc(NC3CC3)c3ncc(C#N)n3n2)c(Cl)c(N2CC(N3CCC(O)C3)C2)c1 (racemic) [Example 159, (+/−) 2-((2-chloro-5-cyano-3-(3-(3-hydroxy-1-pyrrolidinyl)-1-azetidinyl)phenyl)amino)-4-(cyclopropylamino)imidazo [2,1-f][1,2,4]triazine-7-carbonitrile] | 0.48
20 | CC(C)(O)C1CN(C2CN(c3cc(C#N)cc(Nc4nc(NC5CC5)c5ncc(C#N)n5n4)c3Cl)C2)CCO1 (racemic) [Example 165, (+/−)2-(2-chloro-5-cyano-3-(3-(2-(2-hydroxypropan-2-yl)morpholino)azetidin-1-yl)phenylamino)-4-(cyclopropylamino)imidazo [1,2-f][1,2,4]triazine-7-carbonitrile] | 0.54
21 | CC(=O)N[C@@H]1CCN(c2cc(C#N)cc(Nc3nc(NC4CC4)c4ncc(C#N)n4n3)c2Cl)C[C@H]1O (racemic) [Example 172, (+/−)-N-((3R,4R)-1-(2-chloro-5-cyano-3-((7-cyano-4-(cyclopropylamino)imidazo[2,1-f][1,2,4]triazin-2-yl)amino)phenyl)-3-hydroxypiperidin-4-yl)acetamide] | 0.51
22 | N#Cc1cc(Nc2nc(NC3CC3)c3ncc(C#N)n3n2)c(Cl)c(N2CC[C@@H](NC(=O)OC3CN(C4COC4)C3)[C@H](O)C2)c1 (racemic) [Example 180, (+/−)-1-(oxetan-3-yl)azetidin-3-yl((3R,4R)-1-(2-chloro-5-cyano-3-((7-cyano-4-(cyclopropylamino)imidazo[2,1-f][1,2,4]triazin-2-yl)amino)phenyl)-3-hydroxypiperidin-4-yl)carbamate] | 0.51
23 | N#Cc1cc(Nc2nc(NC3CC3)c3ncc(C#N)n3n2)c(Cl)c(N2CC[C@@H](NC(=O)N3CCOCC3)[C@H](O)C2)c1 (racemic) [Example 181, (+/−)-N-((3R,4R)-1-(2-chloro-5-cyano-3-((7-cyano-4-(cyclopropylamino)imidazo[2,1-f][1,2,4]triazin-2-yl)amino)phenyl)-3-hydroxypiperidin-4-yl)morpholine-4-carboxamide] | 0.88
24 | CN1CCN(C(=O)N[C@@H]2CCN(c3cc(C#N)cc(Nc4nc(NC5CC5)c5ncc(C#N)n5n4)c3Cl)C[C@H]2O)CC1 (racemic) [Example 182, (+/−)-N-((3R,4R)-1-(2-chloro-5-cyano-3-((7-cyano-4-(cyclopropylamino)imidazo[2,1-f][1,2,4]triazin-2-yl)amino)phenyl)-3-hydroxypiperidin-4-yl)-4-methylpiperazine-1-carboxamide] | 0.66
